Patent US20130158024A1, “TRICYCLIC NECROSTATIN COMPOUNDS” (priority 2005, published 2013)
“Also recorded” adds a separate entry of the source.

What was measured:
L929 cells = test: TNFα-induced CICD of L929 cells, ATP assay; format: cell-based, mouse; details: no caspase inhibitor
Description: Cell viability was determined using ATP-Lite-M ATP assay (Packard). The values represent viability relative to the control lacking TNFα, which was set as 100% viability.
Cell viability in this and subsequent panels was determined by ATP-based viability assay. Numbers represent percentages of the live cells normalized to those in the untreated control wells. Throughout, error bars represent standard deviations. […] Numbers represent viability normalized to that of the corresponding compound-treated cells in the absence of FasL. […] Numbers represent viability normalized to that of the corresponding compound-treated cells in the absence of dimerizer. […] Cells were treated with TNFα (E, F, H), zVAD.fmk (E, F), or CHX (F) for 16 (F) or 24 (E, H) hours. Numbers represent viability normalized to that of the compound-treated cells in the absence of TNFα.

B cell = B cell activation (LPS/IL-4) of splenocytes suppressed by zVAD.fmk, FACS; format: cell-based, mouse; details: 100 μM zVAD.fmk, 30 μM compound, 72 hours
Description: Cells were stained with αB220-FITC antibody (Pharmingen), and B cell numbers were determined by FACS. Cell numbers are normalized to the number of cells in unstimulated control, which was set as 100%.

Rat hippocampal neurons = test: Amyloid-beta toxicity in rat hippocampal neurons, ATP assay; format: cell-based; details: Aβ25-35, 48 or 72 hours
Description: Viability was determined using an ATP assay. Similar results were also obtained using Aβ1-42.

CD8+ cells = test: Activation and proliferation of CD8+ cytotoxic T lymphocytes (CTL) suppressed by zVAD.fmk; format: cell-based, mouse; details: 100 μM zVAD.fmk, 30 μM compound
Description: Numbers of cells were determined using FACS analyses. Cell numbers are normalized to the number of cells in unstimulated control, which was set as 100%. […] Cells were stained with αCD8^+-FITC antibody (Pharmingen) and CD8^+ cell numbers were determined by FACS. Cell numbers are normalized to the number of cells in unstimulated control, which was set as 100%. Percentages of dead cells (line) was determined by co-staining cells with propidium iodide.
Values represent fold increase over unstimulated control.
Cells were stained with αCD8^+-FITC antibody (Pharmingen), and CD8^+ cell numbers were determined by FACS. Cell numbers are normalized to the number of cells in unstimulated control, which was set as 100%. Percentages of dead cells (line) were determined by co-staining cells with propidium iodide.

FADD deficient JK cells = test: MNNG-induced death of FADD deficient JK cells; format: cell-based, human; details: 30 μM Nec-1, 5 hours
RIP2 = target: T1, RIP2 (Homo sapiens, UniProt O43353); test: In vitro kinase assay: autophosphorylation of RIP2; format: biochemical; details: RIP2-Myc from transfected 293T cells
T1 construct: expressed in transfected cells; host or cells: 293T
T1 sequence (O43353 whole entry, species assumed): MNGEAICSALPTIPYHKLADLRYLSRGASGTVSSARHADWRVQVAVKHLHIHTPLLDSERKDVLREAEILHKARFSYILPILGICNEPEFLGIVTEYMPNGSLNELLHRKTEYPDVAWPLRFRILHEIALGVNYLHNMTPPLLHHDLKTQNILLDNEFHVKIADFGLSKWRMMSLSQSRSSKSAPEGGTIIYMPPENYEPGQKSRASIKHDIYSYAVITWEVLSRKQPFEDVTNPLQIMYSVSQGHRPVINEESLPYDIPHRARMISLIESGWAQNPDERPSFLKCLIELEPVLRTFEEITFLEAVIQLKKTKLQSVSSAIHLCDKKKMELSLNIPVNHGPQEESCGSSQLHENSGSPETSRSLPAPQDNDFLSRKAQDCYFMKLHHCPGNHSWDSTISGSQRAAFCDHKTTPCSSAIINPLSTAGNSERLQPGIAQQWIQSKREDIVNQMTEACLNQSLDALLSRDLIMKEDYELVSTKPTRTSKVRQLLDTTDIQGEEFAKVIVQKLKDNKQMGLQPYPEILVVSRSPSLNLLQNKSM
Excerpt: 293T cells were transfected with RIP-FLAG or RIP2-Myc vectors. […] Major bands corresponding to phosphorylated RIP, RIP2, asterisks, and IgG are shown.

U937 cells = test: Necrosis of U937 cells induced by TNFα and zVAD.fmk (primary and secondary screen), ATP assay; format: cell-based, human; details: U937, 72 hours
Description: We plated U937 cells in 384-well plates at 5,000-10,000 cells per well in 40-μl phenol red-free RPMI 1640 medium containing 100 μM zVAD.fmk and 40 ng ml^−1 human TNFα using a Multidrop dispenser (Thermo Electron). We added 100 nl of the DiverSetE (5 mg ml^−1 in DMSO, Chembridge) using a Seiko-based custom-built pin transfer robot (Institute of Chemistry and Cell Biology, Harvard Medical School). After 72 hours, we assessed cell viability using a luminescence-based ATP assay (ATPLite-M, PerkinElmer). We also dispensed cells not treated with TNFα in each plate as a positive control. We purchased Nec-1 and other preliminary positive hits from Chembridge for individual retesting.
Using a known paradigm of death receptor mediated caspase-independent cell death in human U937 cells, we established a high-throughput screen in 384 well format for small molecule inhibitors of caspase-independent cell death (CICD). In this system, U937 cells were induced to undergo CICD in the presence of TNFα and zVAD.fmk, and the rate of cell death was determined by an ATP-Lite-M assay, a commercial luminescence-based assay measuring cellular ATP levels (Packard). U937 cells were chosen because these cells can be induced to undergo CICD very efficiently upon TNFα/zVAD treatment in the absence of additional, stress-inducing sensitizing stimuli, such as CHX, making this system perfectly suited for reliable identification of CICD inhibitors. Furthermore, rapid suspension growth kinetics of U937 cells results in the availability of large quantities of cells, which translates into robust signals ideal for high throughput screening. ATP-Lite-M assay was chosen because among all the different assay systems tested, it gives the most consistent and robust signal, which is also critical for high throughput screening. Exposure of U937 cells to TNFα alone led to partial cell death, whereas co-treatment with TNFα and caspase inhibitor zVAD.fmk produced significant increase in the amount of cell death and ATP loss consistent with the published observations. In addition, in the presence of zVAD.fmk, the morphology of cell loss changed from apoptosis with cell shrinkage, nuclear fragmentation, membrane blebbing to necrosis, characterized by cell swelling, increase in cytosolic density, and early loss of plasma membrane integrity. Other cell death assays, such as an MTT assay (mitochondrial metabolism) and Sytox assay (permeability of the plasma membrane), were used as alternative means to validate the screen, and consistently produced results similar to those obtained using ATP-Lite-M assay, which confirmed that the ATP-Lite-M assay can be used to accurately measure the extent of CICD.
In a primary screen, U-937 cells (5×10^5 or 7.5×10^5 cells/ml) were first exposed to zVAD-fmk (100 μM). Thirty minutes later the same cells were exposed to a chemical compound from the library (5 mg/ml, dissolved in 0.1-0.5 μl of DMSO, giving a final DMSO concentration of 0.3% to 1.5%). After an additional thirty minutes, TNFα (40 ng/ml) was added to the cell culture medium. The cells were then incubated at 37 C for 72 hours, and were then assayed for cellular ATP levels. […] Compounds which maintained cellular ATP levels were compounds which blocked necrosis triggered by zVAD-fmk and TNFα.
In a secondary screen, the compounds identified from the first screen, above, to decrease necrosis induced by zVAD-fmk and TNFα were assayed for their potency. Serial dilution of each chemical compound was performed and the compounds were administered to U-937 cells, as per the primary screen. The concentrations of each compound were 70 μM, 23 μM, 8 μM, and 2.5 μM. The level of necrosis occurring in response to zVAD-fmk, TNFα, and the various concentrations of chemical compounds was assayed as described above for the primary screen.

methylthiohydantoin-tryptophane [Nec-1]
protection of L929 cells from TNFα-induced CICD, in words (L929 cells): protects L929 cells from CICD; also recorded: unlike Nec-1; also recorded: efficiently inhibited the TNFα-induced necrotic death of L929 cells
B cell activation in the presence of zVAD.fmk, in words (B cell): promotes B cell activation; also recorded: attenuated suppression of B cell activation by zVAD.fmk
attenuation of amyloid-beta toxicity in hippocampal neurons, in words (Rat hippocampal neurons): protection by Nec-1 from amyloid-beta toxicity; also recorded: attenuation of the aggregated amyloid-beta peptide (Aβ) toxicity in primary rat hippocampal neurons
restoration of CTL activation/proliferation suppressed by zVAD.fmk, in words (CD8+ cells): restores normal activation of CTLs inhibited by caspase inhibition; also recorded: restoration of CTL proliferation by Nec-1; also recorded: completely suppressed by Nec-1; also recorded: suppression of cell proliferation was prevented in the presence of Nec-1
protection from MNNG-induced death, in words (FADD deficient JK cells): failed to protect cells from DNA alkylating agent 1-methyl-3-nitro-1-nitrosoguanidine (MNNG)-induced death
effect on RIP2 autophosphorylation, in words (RIP2): lack of a Nec-1 effect on RIP2 autophosphorylation; also recorded: had no effect on RIP2 autophosphorylation
inhibition of necrosis induced by TNFα/zVAD.fmk, in words (U937 cells): inhibition of cell death of U937 cells treated with TNFα and zVAD.fmk for 72 hours; also recorded: provided expected protection against TNFα/zVAD.fmk; also recorded: efficiently blocked necroptotic death in U937 cells in a concentration-dependent fashion
